Test results taken from patent publication US8461150B2, “Chalcone linked pyrrolo[2,1-c][1, 4]benzodiazepine hybrids as potential anticancer agents and process for the preparation thereof” (Council of Scientific & Industrial Research, priority 2008, dated 2013).

Columns and labels:
Breast cancer cell lines = assay: NCI in vitro anticancer screen, SRB assay, 48 h, panel average; type: cell-based, human; conditions: average of six to eight cell lines, 48 h exposure
Protocol: (§1) Biological Activity: The in vitro cell line studies were carried out at the National Cancer Institute, Maryland, USA.
(§2) Cytotoxicity: • The compounds 6b) 7-Methoxy-8-{4-[1-(4-fluorophenyl)-3-(4-hydroxy-3-methoxyphenyl)-2-propen-1-one]butyl}-oxy-(11aS)-1,2,3,11a-5H-pyrrolo[2,1-c][1,4]benzodiazepin-5-one; • (6c) 7-Methoxy-8-{5-[1-(4-fluorophenyl)-3-(4-hydroxy-3-methoxyphenyl)-2-propen-1-one]pentyl}-oxy-(11aS)-1,2,3,11a-5H-pyrrolo[2,1-c][1,4]benzodiazepin-5-one; • (6g) 7-Methoxy-8-{3-[1-(2-hydroxyphenyl)-3-(4-hydroxy-3-methoxyphenyl)-2-propen-1-one]propyl}-oxy-(11aS)-1,2,3,11a-5H-pyrrolo[2,1-c][1,4]benzodiazepin-5-one; • (10a) 7-Methoxy-8-{3-[3-(4-hydroxy-3-methoxyphenyl)-1-(2,4-dimethyl-3-quinolyl)-2-propen-1-one]propyl}-oxy-(11aS)-1,2,3,11a-5H-pyrrolo[2,1-c][1,4]benzodiazepin-5-one • (10b) 7-Methoxy-8-{4-[3-(4-hydroxy-3-methoxyphenyl)-1-(2,4-dimethyl-3-quinolyl)-2-propen-1-one]butyl}-oxy-(11aS)-1,2,3,11a-5H-pyrrolo[2,1-c][1,4]benzodiazepin-5-one; were evaluated for in vitro anticancer activity against […] derived from […] (leukemia, ovarian, renal, melanoma, CNS, colon, prostate, lung, cervix and breast cancer) as shown in (Table 1, 2 and 3)
(§3) 6b, 6c, 6g, 10a and 10b were evaluated for in vitro anticancer activity against sixty human tumour cells derived from nine cancer types (leukemia, non-small-cell lung, colon, CNS, melanoma, ovarian, prostate, renal and breast cancer) as shown in (Table 1 and 2). For the compound, dose response curves for each cell line were measured at a minimum of five concentrations at 10 fold dilutions. A protocol of 48 h continuous drug exposure was used and a sulforhodamine B (SRB) protein assay was used to estimate cell viability or growth. The concentration causing 50% cell growth inhibition (GI50), total cell growth inhibition (TGI 0% growth) and 50% cell death (LC50, −50% growth) compared with the control was calculated.
(§4) Each cancer type represents the average of six to eight different cancer cell lines.

CNS cancer cell lines = assay: as above; type: cell-based, human; conditions: average of six to eight cell lines, 48 h exposure
Protocol: as §1, §2, §3, §4

Colon cancer cell lines = assay: as above; type: cell-based, human; conditions: average of six to eight cell lines, 48 h exposure
Protocol: as §1, §2, §3, §4

[1] = tested on: Leukemia cancer cell lines; assay: as above; type: cell-based, human; conditions: average of six to eight cell lines, 48 h exposure
Protocol: as §1, §2, §3, §4

[2] = tested on: Melanoma cancer cell lines; assay: as above; type: cell-based, human; conditions: average of six to eight cell lines, 48 h exposure
Protocol: as §1, §2, §3, §4

[3] = tested on: Non-small cell lung cancer cell lines; assay: as above; type: cell-based, human; conditions: average of six to eight cell lines, 48 h exposure
Protocol: as §1, §2, §3, §4

[4] = tested on: Ovarian cancer cell lines; assay: as above; type: cell-based, human; conditions: average of six to eight cell lines, 48 h exposure
Protocol: as §1, §2, §3, §4

[5] = tested on: Prostate cancer cell lines; assay: as above; type: cell-based, human; conditions: average of six to eight cell lines, 48 h exposure
Protocol: as §1, §2, §3, §4

Renal cancer cell lines = assay: as above; type: cell-based, human; conditions: average of six to eight cell lines, 48 h exposure
Protocol: as §1, §2, §3, §4

human tumour cell lines = assay: In vitro cytotoxicity, mean graph midpoints (MG_MID) over human tumour cell lines; type: cell-based; conditions: for Log10LC50 mean graph midpoint (MG_MID): 50% cell death; for Log10LC50 mean graph midpoint (MG_MID) / Log10GI50 mean graph midpoint (MG_MID) / Log10TGI mean graph midpoint (MG_MID): human tumour cell lines, 48 h exposure, SRB; for cytotoxicity against some cancer cell lines: in words, refers to Table 3; for Log10TGI mean graph midpoint (MG_MID): total cell growth inhibition
Protocol: as §1, §3

## COc1cc(C=CC(=O)c2ccc(F)cc2)ccc1OCCCCOc1cc2c(cc1OC)C(=O)N1CCC[C@H]1C=N2 [6b, 7-Methoxy-8-{4-[1-(4-fluorophenyl)-3-(4-hydroxy-3-methoxyphenyl)-2-propen-1-one]butyl}-oxy-(11aS)-1,2,3,11a-5H-pyrrolo[2,1-c][1,4]benzodiazepin-5-one]
Breast cancer cell lines
  Log GI50 (concentration in mol/L causing 50% growth inhibition): −6.57 mol/L
CNS cancer cell lines
  Log GI50 (concentration in mol/L causing 50% growth inhibition): −5.91 mol/L
Colon cancer cell lines
  Log GI50 (concentration in mol/L causing 50% growth inhibition): −6.53 mol/L
[1]
  Log GI50 (concentration in mol/L causing 50% growth inhibition): −6.84 mol/L
[2]
  Log GI50 (concentration in mol/L causing 50% growth inhibition): −6.65 mol/L
[3]
  Log GI50 (concentration in mol/L causing 50% growth inhibition): −6.84 mol/L
[4]
  Log GI50 (concentration in mol/L causing 50% growth inhibition): −5.56 mol/L
[5]
  Log GI50 (concentration in mol/L causing 50% growth inhibition): −5.63 mol/L
Renal cancer cell lines
  Log GI50 (concentration in mol/L causing 50% growth inhibition): −6.67 mol/L
Human tumour cell lines
  Log10LC50 mean graph midpoint (MG_MID): −4.59
  Log10GI50 mean graph midpoint (MG_MID): −6.83
  cytotoxicity against some cancer cell lines: promising cytotoxicity
  Log10TGI mean graph midpoint (MG_MID): −6.81

## COc1cc(C=CC(=O)c2ccc(F)cc2)ccc1OCCCCCOc1cc2c(cc1OC)C(=O)N1CCC[C@H]1C=N2 [6c, 7-Methoxy-8-{5-[1-(4-fluorophenyl)-3-(4-hydroxy-3-methoxyphenyl)-2-propen-1-one]pentyl}-oxy-(11aS)-1,2,3,11a-5H-pyrrolo[2,1-c][1,4]benzodiazepin-5-one]
Breast cancer cell lines
  Log GI50 (concentration in mol/L causing 50% growth inhibition): −6.31 mol/L
CNS cancer cell lines
  Log GI50 (concentration in mol/L causing 50% growth inhibition): −5.68 mol/L
Colon cancer cell lines
  Log GI50 (concentration in mol/L causing 50% growth inhibition): −6.76 mol/L
[1]
  Log GI50 (concentration in mol/L causing 50% growth inhibition): −6.59 mol/L
[2]
  Log GI50 (concentration in mol/L causing 50% growth inhibition): −6.38 mol/L
[3]
  Log GI50 (concentration in mol/L causing 50% growth inhibition): −6.38 mol/L
[4]
  Log GI50 (concentration in mol/L causing 50% growth inhibition): −4.60 mol/L
[5]
  Log GI50 (concentration in mol/L causing 50% growth inhibition): −5.05 mol/L
Renal cancer cell lines
  Log GI50 (concentration in mol/L causing 50% growth inhibition): −6.39 mol/L
Human tumour cell lines
  Log10LC50 mean graph midpoint (MG_MID): −4.61
  Log10GI50 mean graph midpoint (MG_MID): −6.86
  cytotoxicity against some cancer cell lines: promising cytotoxicity
  Log10TGI mean graph midpoint (MG_MID): −6.79

## COc1cc(C=CC(=O)c2c(C)nc3ccccc3c2C)ccc1OCCCOc1cc2c(cc1OC)C(=O)N1CCC[C@H]1C=N2 [10a, 7-Methoxy-8-{3-[3-(4-hydroxy-3-methoxyphenyl)-1-(2,4-dimethyl-3-quinolyl)-2-propen-1-one]propyl}-oxy-(11aS)-1,2,3,11a-5H-pyrrolo[2,1-c][1,4]benzodiazepin-5-one]
Breast cancer cell lines
  Log GI50 (concentration in mol/L causing 50% growth inhibition): −6.31 mol/L
CNS cancer cell lines
  Log GI50 (concentration in mol/L causing 50% growth inhibition): −6.61 mol/L
Colon cancer cell lines
  Log GI50 (concentration in mol/L causing 50% growth inhibition): −6.76 mol/L
[1]
  Log GI50 (concentration in mol/L causing 50% growth inhibition): −6.88 mol/L
[2]
  Log GI50 (concentration in mol/L causing 50% growth inhibition): −6.38 mol/L
[3]
  Log GI50 (concentration in mol/L causing 50% growth inhibition): −6.79 mol/L
[4]
  Log GI50 (concentration in mol/L causing 50% growth inhibition): −5.10 mol/L
[5]
  Log GI50 (concentration in mol/L causing 50% growth inhibition): −5.05 mol/L
Renal cancer cell lines
  Log GI50 (concentration in mol/L causing 50% growth inhibition): −6.39 mol/L
Human tumour cell lines
  Log10LC50 mean graph midpoint (MG_MID): −4.43
  Log10GI50 mean graph midpoint (MG_MID): −6.94
  cytotoxicity against some cancer cell lines: promising cytotoxicity
  Log10TGI mean graph midpoint (MG_MID): −6.90

## COc1cc(C=CC(=O)c2c(C)nc3ccccc3c2C)ccc1OCCCCOc1cc2c(cc1OC)C(=O)N1CCC[C@H]1C=N2 [10b, 7-Methoxy-8-{4-[3-(4-hydroxy-3-methoxyphenyl)-1-(2,4-dimethyl-3-quinolyl)-2-propen-1-one]butyl}-oxy-(11aS)-1,2,3,11a-5H-pyrrolo[2,1-c][1,4]benzodiazepin-5-one]
Breast cancer cell lines
  Log GI50 (concentration in mol/L causing 50% growth inhibition): −6.52 mol/L
CNS cancer cell lines
  Log GI50 (concentration in mol/L causing 50% growth inhibition): −6.16 mol/L
Colon cancer cell lines
  Log GI50 (concentration in mol/L causing 50% growth inhibition): −6.41 mol/L
[1]
  Log GI50 (concentration in mol/L causing 50% growth inhibition): −6.94 mol/L
[2]
  Log GI50 (concentration in mol/L causing 50% growth inhibition): −6.59 mol/L
[3]
  Log GI50 (concentration in mol/L causing 50% growth inhibition): −6.87 mol/L
[4]
  Log GI50 (concentration in mol/L causing 50% growth inhibition): −5.28 mol/L
[5]
  Log GI50 (concentration in mol/L causing 50% growth inhibition): −5.85 mol/L
Renal cancer cell lines
  Log GI50 (concentration in mol/L causing 50% growth inhibition): −6.17 mol/L
Human tumour cell lines
  Log10LC50 mean graph midpoint (MG_MID): −4.46
  Log10GI50 mean graph midpoint (MG_MID): −6.86
  cytotoxicity against some cancer cell lines: promising cytotoxicity
  Log10TGI mean graph midpoint (MG_MID): −6.94
